Assay results from publication PMC10531095, “Photonics of Some Monomethine Cyanine Dyes in Solutions and in Complexes with Biomolecules” (International Journal of Molecular Sciences, 2023).

Key:
dsDNA = test: Thermal dissociation (melting) of dsDNA in the presence of MCD; type: binding, chick; details: cdsDNA~6 × 10^−5 mol L^−1, cMCD~6 × 10^−6 mol L^−1; for Tm(dsDNA), melting point of dsDNA in the presence of MCD: without cyanines 80 °C
Source text: It is known that noncovalent ligand–dsDNA interactions upon the intercalative type of binding lead to additional stabilization of the biopolymer, which is reflected in an increase in the temperature range of thermal dissociation of the DNA double helix. From the data on the thermal dissociation of dsDNA, it is easy to obtain the melting point Tm(dsDNA) (at which 50% dsDNA is denatured). Note that Tm(dsDNA) depends on its GC composition, molecular length, and degree of strand complementarity; long duplexes with fewer base mismatches will have higher Tm(dsDNA) than short duplexes with more mismatches.
Melting of the DNA double helix was measured spectrophotometrically at t = […], the normalized temperature dependences of the absorbances of the samples at λabs = 260 nm are shown in Figure 8.
Single-stranded form of DNA (single-stranded DNA; ssDNA) was obtained according to the method described in [74]. The concentrations of DNA and the dyes were controlled spectrophotometrically. Molar extinction coefficient of dsDNA (ε, L⋅mol^−1⋅cm^−1) was taken to be 13,200 L mol^−1 cm^−1 (per base pair); for ssDNA, ε = 9045 L mol^−1 cm^−1 (per one base) was used. For MCD 1 and 2 in an aqueous buffer solution, we used extinction coefficients ε = 40,000 and 68,000 L mol^−1 cm^−1, respectively, which were taken from. For MCD 3 and 4, the molar extinction coefficients in ethanol solution were 69,200 and 49,000 L mol^−1 cm^−1 (taken from). […] Spectral fluorescent characteristics of MCD in complexes with biomacromolecules were studied by titration of dye solutions (see Supplementary Materials). The thermal dissociation (“melting”) of dsDNA in the presence of MCD was studied spectrophotometrically (λabs = 260 nm), the sample was heated (t° = 30–95 °C) using Peltier cells, and the temperature was controlled using a thermocouple. Melting points tm, corresponding to 50% hyperchromia of DNA samples were obtained.

HSA = target: T1, HSA (Homo sapiens, UniProt P02768); test: Quenching of HSA intrinsic fluorescence by MCD, synchronous fluorescence scanning; type: binding; details: for decrease of the intensity of the SFS band of HSA, tyrosine: Δλ = 15 nm; for decrease of the intensity of the SFS band of HSA, tyrosine / decrease of the intensity of the SFS band of HSA, tryptophan: cMCD up to 5.3 × 10^−5 mol L^−1; for decrease of the intensity of the SFS band of HSA, tryptophan: Δλ = 60 nm
T1 construct: purchased Sigma-Aldrich
Description: In order to determine the binding sites of HSA when interacting with MCD and to evaluate possible changes in these sites, the fluorescence spectra of tyrosine and tryptophan groups of HSA in the presence of MCD were measured in the synchronous fluorescence scanning (SFS) mode. The positions of the SF spectra of protein amino acid residues depend on their microsolvation (micropolarity of the medium). Thus, SFS allows for obtaining data on the effect of complexation on the microenvironment of fluorophore groups of protein molecules.
Quenching of intrinsic HSA fluorescence was analyzed using the Stern–Volmer and Lehrer–Leavis relationships (see Equations (3) and (4)). The experimental dependences approximated by linear anamorphoses (R^2~0.9–0.98) were better in the coordinates of the Lehrer–Leavis model than in the Stern–Volmer model (the Stern–Volmer plots were nonlinear). The Lehrer–Leavis model assumes partial accessibility of HSA chromophores for quenching by MCD (the resulting quenching constants are shown in Table 6).
Absorption spectra were recorded on an SF-2000 spectrophotometer (Experimental-Construction Company “Spectrum”, St. Petersburg, Russia); fluorescence and fluorescence excitation spectra were recorded on a Fluorat-02-Panorama spectrofluorimeter (Group of Companies “Lumex”, St. Petersburg, Russia). The fluorescence and fluorescence excitation spectra were corrected for the spectral characteristics of the instrument (excitation channel signal) and sample transmission. Changes in the intrinsic fluorescence of HSA upon binding of MCD (in the presence of the dyes) were recorded in the synchronous fluorescence scanning (SFS) mode. In SFS mode, when registering spectra, a fixed difference Δλ= λfl − λex is maintained for the channels of excitation and registration. Synchronous scanning spectra were obtained at Δλ = 15 nm (fluorescence of tyrosine residues in the HSA molecule) and Δλ = 60 nm (fluorescence of tryptophan). The spectra were measured in 1 cm quartz semi-micro cells (Bio-Rad, Hercules, CA, USA).
The Stern–Volmer (Equation (3)) and Lehrer–Leavis (Equation (4)) dependences were used to analyze the results of measurements of HSA intrinsic fluorescence (synchronous scanning mode) in the presence of MCD [56, 57]. (3) I0/I=1 + KSV[Q] (4) I0/(I0−I)=1 /α+ 1/(αKSV[Q]) where I0 and I are the fluorescence intensities in the absence and in the presence of a quencher, respectively; [Q] is the quencher concentration; KSV is the Stern–Volmer quenching constant; and α is the proportion of fluorophores in the biomolecule available to the quencher in the Lehrer–Leavis model. […]
1. Spectral‐Fluorescent Titration
In experiments on spectral‐fluorescence titration, MCD 1–4 were dosed from their concentrated st ock solutions in EtOH. Microvolumes (~0.5–5 μL) were dosed into the measuring cell (dilution 1:500 – 1:1000).
In experiments with biomacromolecules, microvolumes of concentrated stock solutions of dsDNA, ssDNA and HSA were injected directly into the cells. Spectral‐fluorescent characteristics of MCD in complexes with biomacromolecules were studied by titration of dye solutions (cdye ~ 1 – 2 × 10–6 mol L–1) with increasing concentrations of biopolymers. Measurements of the intrinsic fluorescence of HSA in the presence of MCD were carried out at a constant concentration of HSA (cHSA ~ 2.0 × 10–5 mol L–1) by titration with increasing concentrations of dyes. After stirring, the absorption and fluorescence spectra of the dyes were recorded several times. Upon registration, the fluorescence and fl uorescence excitation spectra were corrected for the spectral characteristic of the excitation channel and for the absorption of […]
2. Fluorescence Quantum Yields
Determination of the fluorescence quantum yields of MCD 1–4 was performed using the standard […]

T1 sequence (P02768 25-609): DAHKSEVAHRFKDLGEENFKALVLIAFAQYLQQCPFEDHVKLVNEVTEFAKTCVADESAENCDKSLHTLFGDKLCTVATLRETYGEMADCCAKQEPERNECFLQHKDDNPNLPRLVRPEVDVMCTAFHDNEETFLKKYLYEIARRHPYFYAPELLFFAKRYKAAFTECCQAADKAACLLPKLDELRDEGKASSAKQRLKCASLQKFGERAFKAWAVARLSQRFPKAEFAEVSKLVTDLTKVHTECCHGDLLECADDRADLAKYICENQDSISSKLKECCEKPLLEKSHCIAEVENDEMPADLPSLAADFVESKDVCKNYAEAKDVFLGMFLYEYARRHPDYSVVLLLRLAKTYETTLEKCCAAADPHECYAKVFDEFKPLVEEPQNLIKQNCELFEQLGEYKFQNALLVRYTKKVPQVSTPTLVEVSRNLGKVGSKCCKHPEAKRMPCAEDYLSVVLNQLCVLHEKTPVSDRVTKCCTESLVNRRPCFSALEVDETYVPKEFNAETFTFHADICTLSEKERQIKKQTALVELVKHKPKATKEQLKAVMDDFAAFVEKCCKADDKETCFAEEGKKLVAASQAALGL

For `CC[N+](CC)(CC)CCC[n+]1ccc(/C=C2\Sc3ccccc3N2C)c2ccc(O)cc21` [MCD 1], the “Tm(dsDNA), melting point of dsDNA in the presence of MCD” value (“Tm(dsDNA), melting point of dsDNA” below) (dsDNA) was 85–86 °C, the “KSV, Stern–Volmer quenching constant (Lehrer–Leavis model)” value (shortened to “KSV, Stern–Volmer quenching constant”) (HSA; Trp, SFS Δλ = 60 nm) was 40400 L/mol and the “α, proportion of fluorophores available to the quencher (Lehrer–Leavis model)” value (“α, proportion of fluorophores available” for short) (HSA; Trp, SFS Δλ = 60 nm) was 0.40. The “KSV, Stern–Volmer quenching constant” value (HSA; Tyr, SFS Δλ = 15 nm) was 21800 L/mol, the “α, proportion of fluorophores available” value (HSA; Tyr, SFS Δλ = 15 nm) was 0.61 and the “decrease of the intensity of the SFS band of HSA, tyrosine” value (shortened to “decrease of the intensity … tyrosine”) (HSA) was 31%. The “decrease of the intensity of the SFS band of HSA, tryptophan” value (from here on “decrease of the intensity … tryptophan”) (HSA) was 26%.

With `CCN1/C(=C/c2ccc3ccccc3[n+]2CC)C=Cc2ccccc21` [MCD 4] the “growth of Tm(dsDNA)” value (dsDNA) was 2–3 °C, the “Tm(dsDNA), melting point of dsDNA” value (dsDNA) was 83 °C and the “KSV, Stern–Volmer quenching constant” value (HSA; Trp, SFS Δλ = 60 nm) was 21000 L/mol. The “α, proportion of fluorophores available” value (HSA; Trp, SFS Δλ = 60 nm) was 0.60, the “KSV, Stern–Volmer quenching constant” value (HSA; Tyr, SFS Δλ = 15 nm) was 38200 L/mol and the “α, proportion of fluorophores available” value (HSA; Tyr, SFS Δλ = 15 nm) was 0.33. The “decrease of the intensity … tyrosine” value (HSA) was 21% and the “decrease of the intensity … tryptophan” value (HSA) was 22%.

For `CCN1/C(=C/c2sc3ccccc3[n+]2CC)Sc2ccccc21` [MCD 3], the “growth of Tm(dsDNA)” value (dsDNA) was 2–3 °C, the “Tm(dsDNA), melting point of dsDNA” value (dsDNA) was 82 °C and the “KSV, Stern–Volmer quenching constant” value (HSA; Trp, SFS Δλ = 60 nm) was 6.12e+07 L/mol. The “α, proportion of fluorophores available” value (HSA; Trp, SFS Δλ = 60 nm) was 0.82, the “KSV, Stern–Volmer quenching constant” value (HSA; Tyr, SFS Δλ = 15 nm) was 112000 L/mol and the “α, proportion of fluorophores available” value (HSA; Tyr, SFS Δλ = 15 nm) was 0.15. The “decrease of the intensity … tyrosine” value (HSA) was 11% and the “decrease of the intensity … tryptophan” value (HSA) was 6%.
